Converted amounts (≈) assume the structure as drawn.
Tests used:
[1] = molecular target: Receptor tyrosine-protein kinase erbB-2 (Homo sapiens, UniProt P04626);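 also: recombinant His6-tagged human HER-2, autophosphorylation inhibition read by DELFIA time-resolved fluorescence after 10 min preincubation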
Description: Inhibition of human recombinant (His)6-tagged HER-2 autophosphorylation pre-incubated for 10 mins by DELFIA/Time-resolved fluorimetry

[2] = molecular target: Epidermal growth factor receptor (Homo sapiens, UniProt P00533);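 also: recombinant His6-tagged EGFR autophosphorylation, read by DELFIA time-resolved fluorimetry after a 10 min preincubation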
Sequence of Epidermal growth factor receptor (P00533 whole entry): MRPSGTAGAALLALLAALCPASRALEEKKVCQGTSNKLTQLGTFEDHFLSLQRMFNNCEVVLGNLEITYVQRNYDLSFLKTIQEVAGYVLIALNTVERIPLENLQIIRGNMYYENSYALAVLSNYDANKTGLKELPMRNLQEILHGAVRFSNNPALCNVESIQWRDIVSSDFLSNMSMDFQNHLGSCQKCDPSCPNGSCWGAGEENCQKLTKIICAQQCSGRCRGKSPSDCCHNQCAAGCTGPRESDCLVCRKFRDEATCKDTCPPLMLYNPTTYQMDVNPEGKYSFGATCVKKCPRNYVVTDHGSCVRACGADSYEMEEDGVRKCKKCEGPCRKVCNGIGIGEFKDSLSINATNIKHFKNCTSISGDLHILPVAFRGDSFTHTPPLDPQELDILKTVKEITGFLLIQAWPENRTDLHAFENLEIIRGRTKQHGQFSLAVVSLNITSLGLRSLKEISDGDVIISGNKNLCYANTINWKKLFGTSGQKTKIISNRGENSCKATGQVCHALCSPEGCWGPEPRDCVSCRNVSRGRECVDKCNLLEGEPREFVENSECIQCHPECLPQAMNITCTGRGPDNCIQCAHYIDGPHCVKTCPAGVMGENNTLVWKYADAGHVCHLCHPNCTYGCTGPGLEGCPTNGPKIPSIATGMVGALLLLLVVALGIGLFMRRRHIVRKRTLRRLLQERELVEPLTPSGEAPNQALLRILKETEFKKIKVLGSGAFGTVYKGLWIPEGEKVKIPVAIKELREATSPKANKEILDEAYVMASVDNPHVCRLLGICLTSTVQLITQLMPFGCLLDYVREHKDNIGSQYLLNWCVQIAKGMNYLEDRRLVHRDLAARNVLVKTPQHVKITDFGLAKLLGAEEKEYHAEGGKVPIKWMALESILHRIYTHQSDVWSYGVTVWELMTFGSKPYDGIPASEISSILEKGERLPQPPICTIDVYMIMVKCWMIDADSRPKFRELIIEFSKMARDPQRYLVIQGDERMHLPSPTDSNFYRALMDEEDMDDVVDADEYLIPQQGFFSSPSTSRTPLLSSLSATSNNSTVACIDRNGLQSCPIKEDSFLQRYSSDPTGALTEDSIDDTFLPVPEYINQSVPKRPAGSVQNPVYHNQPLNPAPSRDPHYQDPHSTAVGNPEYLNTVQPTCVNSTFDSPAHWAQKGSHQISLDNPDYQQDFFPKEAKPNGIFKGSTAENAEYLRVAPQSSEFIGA
Description: Inhibition of human recombinant (His)6-tagged EGFR autophosphorylation pre-incubated for 10 mins by DELFIA/Time-resolved fluorimetry

A549 = test: Antiproliferative activity against human A549 cells after 48 hrs by MTT assay; format: functional, cell-based; details: A549, 48 h
B16-F10 = test: Antiproliferative activity against mouse B16-F10 cells after 48 hrs by MTT assay; format: functional, cell-based; details: B16-F10, 48 h

Sequence of Receptor tyrosine-protein kinase erbB-2 (P04626 whole entry): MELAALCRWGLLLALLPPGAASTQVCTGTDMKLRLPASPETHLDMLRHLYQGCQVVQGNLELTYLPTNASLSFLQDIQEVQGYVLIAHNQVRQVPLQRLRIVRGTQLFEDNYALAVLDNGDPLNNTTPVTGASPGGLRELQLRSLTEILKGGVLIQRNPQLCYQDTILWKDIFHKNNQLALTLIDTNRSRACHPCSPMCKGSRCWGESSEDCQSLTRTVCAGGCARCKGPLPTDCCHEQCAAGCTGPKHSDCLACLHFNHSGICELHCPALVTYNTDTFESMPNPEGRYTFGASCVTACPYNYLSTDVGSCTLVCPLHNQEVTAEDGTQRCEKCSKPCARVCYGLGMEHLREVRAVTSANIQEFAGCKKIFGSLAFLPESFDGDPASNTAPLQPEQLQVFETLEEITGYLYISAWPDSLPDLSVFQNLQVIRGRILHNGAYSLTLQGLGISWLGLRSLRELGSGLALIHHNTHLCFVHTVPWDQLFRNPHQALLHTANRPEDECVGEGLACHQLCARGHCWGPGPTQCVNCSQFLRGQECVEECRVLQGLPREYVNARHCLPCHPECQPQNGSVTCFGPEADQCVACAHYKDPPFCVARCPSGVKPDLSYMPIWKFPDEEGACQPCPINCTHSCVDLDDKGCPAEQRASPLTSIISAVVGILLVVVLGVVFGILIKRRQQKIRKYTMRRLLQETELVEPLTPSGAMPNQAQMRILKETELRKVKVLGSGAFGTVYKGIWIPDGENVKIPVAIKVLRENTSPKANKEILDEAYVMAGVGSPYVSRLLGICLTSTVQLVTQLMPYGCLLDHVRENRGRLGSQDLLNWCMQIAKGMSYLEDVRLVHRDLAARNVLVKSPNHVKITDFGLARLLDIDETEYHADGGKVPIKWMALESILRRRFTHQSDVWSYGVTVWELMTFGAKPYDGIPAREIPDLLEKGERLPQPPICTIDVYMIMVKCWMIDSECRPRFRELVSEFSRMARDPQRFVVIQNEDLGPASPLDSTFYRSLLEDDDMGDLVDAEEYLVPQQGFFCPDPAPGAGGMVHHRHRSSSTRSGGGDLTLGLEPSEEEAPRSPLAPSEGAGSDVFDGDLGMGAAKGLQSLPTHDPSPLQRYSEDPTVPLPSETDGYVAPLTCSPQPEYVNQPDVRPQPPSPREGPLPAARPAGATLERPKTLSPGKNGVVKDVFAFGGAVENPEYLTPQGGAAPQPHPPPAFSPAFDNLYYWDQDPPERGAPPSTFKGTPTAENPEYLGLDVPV

Compound	IC50 [1]	IC50 [2]	IC50 (A549)	IC50 (B16-F10)
Cc1ncc([N+](=O)[O-])n1CC(=O)NS(=O)(=O)c1ccccc1	4.21 µM			
Cc1ccc(S(=O)(=O)NC(=O)Cn2c([N+](=O)[O-])cnc2C)cc1	4.76 µM	3.43 µM	4.38 µg/mL (≈ 12.9 µM)	3.55 µg/mL (≈ 10.5 µM)
Cc1ncc([N+](=O)[O-])n1CC(=O)NS(=O)(=O)c1ccc(F)cc1	1.53 µM	0.39 µM	1.26 µg/mL (≈ 3.68 µM)	0.35 µg/mL (≈ 1.02 µM)
Cc1ncc([N+](=O)[O-])n1CC(=O)NS(=O)(=O)c1ccc(Cl)cc1	3.41 µM	1.51 µM	2.47 µg/mL (≈ 6.88 µM)	0.92 µg/mL (≈ 2.56 µM)
Cc1ncc([N+](=O)[O-])n1CC(=O)NS(=O)(=O)c1ccc(Br)cc1	3.59 µM	2.17 µM	3.03 µg/mL (≈ 7.51 µM)	2.37 µg/mL (≈ 5.88 µM)
O=C(Cc1ccc(F)cc1)NS(=O)(=O)c1ccccc1	8.41 µM	6.74 µM	10.1 µg/mL (≈ 34.5 µM)	9.07 µg/mL (≈ 30.9 µM)
Cc1ccc(S(=O)(=O)NC(=O)Cc2ccc(F)cc2)cc1	10.5 µM	8.28 µM	12 µg/mL (≈ 39.2 µM)	9.94 µg/mL (≈ 32.3 µM)
O=C(Cc1ccc(F)cc1)NS(=O)(=O)c1ccc(F)cc1	7.02 µM	5.17 µM	5.64 µg/mL (≈ 18.1 µM)	4.23 µg/mL (≈ 13.6 µM)
O=C(Cc1ccc(F)cc1)NS(=O)(=O)c1ccc(Cl)cc1	7.56 µM	5.93 µM	6.28 µg/mL (≈ 19.2 µM)	6.36 µg/mL (≈ 19.4 µM)
O=C(Cc1ccc(F)cc1)NS(=O)(=O)c1ccc(Br)cc1	8.18 µM	6.41 µM	7.94 µg/mL (≈ 21.3 µM)	8.2 µg/mL (≈ 22 µM)
O=C(Cc1ccc(Cl)cc1)NS(=O)(=O)c1ccccc1	13.1 µM	11.9 µM		
Cc1ccc(S(=O)(=O)NC(=O)Cc2ccc(Cl)cc2)cc1	15.6 µM	13.7 µM		
O=C(Cc1ccc(Cl)cc1)NS(=O)(=O)c1ccc(F)cc1	11.1 µM	9.59 µM		
O=C(Cc1ccc(Cl)cc1)NS(=O)(=O)c1ccc(Cl)cc1	13.3 µM	10.3 µM		
O=C(Cc1ccc(Cl)cc1)NS(=O)(=O)c1ccc(Br)cc1	13.6 µM	11.3 µM		
O=C(Cc1ccc(Br)cc1)NS(=O)(=O)c1ccccc1	19 µM	17.8 µM		
Cc1ccc(S(=O)(=O)NC(=O)Cc2ccc(Br)cc2)cc1	20.3 µM	18.4 µM		
O=C(Cc1ccc(Br)cc1)NS(=O)(=O)c1ccc(F)cc1	16.3 µM	14.5 µM		
O=C(Cc1ccc(Br)cc1)NS(=O)(=O)c1ccc(Cl)cc1	18.9 µM	15.9 µM		
O=C(Cc1ccc(Br)cc1)NS(=O)(=O)c1ccc(Br)cc1	19.8 µM			
COc1ccc(CC(=O)NS(=O)(=O)c2ccccc2)cc1	29.1 µM	26.2 µM		
COc1ccc(CC(=O)NS(=O)(=O)c2ccc(C)cc2)cc1	> 50 µM	38.5 µM		
COc1ccc(CC(=O)NS(=O)(=O)c2ccc(F)cc2)cc1	23.4 µM	21.8 µM		
COc1ccc(CC(=O)NS(=O)(=O)c2ccc(Cl)cc2)cc1	37.9 µM	32.9 µM		
COc1ccc(CC(=O)NS(=O)(=O)c2ccc(Br)cc2)cc1	25 µM	24.2 µM		
O=C(Cc1cccc(Br)c1)NS(=O)(=O)c1ccccc1	26.3 µM	24.7 µM		
Cc1ccc(S(=O)(=O)NC(=O)Cc2cccc(Br)c2)cc1	27.9 µM	26.2 µM		
O=C(Cc1cccc(Br)c1)NS(=O)(=O)c1ccc(F)cc1	20.4 µM	18.7 µM		
O=C(Cc1cccc(Br)c1)NS(=O)(=O)c1ccc(Cl)cc1	23.5 µM	21.3 µM		
O=C(Cc1cccc(Br)c1)NS(=O)(=O)c1ccc(Br)cc1	27.4 µM	24.3 µM		

From ChEMBL document CHEMBL1828525, “Metronidazole acid acyl sulfonamide: a novel class of anticancer agents and potential EGFR tyrosine kinase inhibitors” (Bioorg Med Chem, 2011)
